# Reference: patent US7396837B2, “Antitumoral analogs of lamellarins” (Pharma Mar, S.A.U., priority 2002, dated 2008)
# Entries after “also recorded” stand apart in the source; their conditions may differ. Like-named read-outs stand apart in the source and are kept apart here.
# Experiments:
# K-562 = assay: SRB colorimetric cell growth inhibition assay, K-562; type: cell-based; conditions: Homo sapiens, K562, K-562; for GI50: GI=growth inhibition, read-out: GI50 K-562; for CC50: LC=cell killing (cytotoxic effect), read-out: LC50 K-562; for IC (TGI): TGI=total growth inhibition (cytostatic effect), read-out: TGI K-562
# Outline: (§1)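 Continuous drug exposure of human cancer cells; SRB protein stain read-out; triplicate wells, mean ± SD; GI, TGI, LC computed.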
# A-549 = assay: SRB colorimetric cell growth inhibition assay, A-549; type: cell-based; conditions: Homo sapiens, A549, A-549; for GI50: GI=growth inhibition, read-out: GI50 A-549; for CC50: LC=cell killing (cytotoxic effect), read-out: LC50 A-549; for IC (TGI): TGI=total growth inhibition (cytostatic effect), read-out: TGI A-549
# Outline: as §1
# SK-MEL-28 = assay: SRB colorimetric cell growth inhibition assay, SK-MEL-28; type: cell-based; conditions: Homo sapiens, SK-MEL-28, MEL-28; for GI50: GI=growth inhibition, read-out: GI50 MEL-28; for CC50: read-out: LC50 MEL-28; for IC (TGI): total growth inhibition (cytostatic effect), read-out: TGI MEL-28
# Outline: as §1
# HT-29 = assay: SRB colorimetric cell growth inhibition assay, HT-29; type: cell-based; conditions: Homo sapiens; for CC50: LC=cell killing (cytotoxic effect), read-out: LC50 HT-29; for GI50: GI=growth inhibition, read-out: GI50 HT-29; for IC (TGI): TGI=total growth inhibition (cytostatic effect), read-out: TGI HT-29
# Outline: as §1
# LoVo = assay: SRB colorimetric cell growth inhibition assay, LoVo; type: cell-based; conditions: Homo sapiens; for CC50: LC=cell killing (cytotoxic effect), read-out: LC50 LOVO; for GI50: GI=growth inhibition, read-out: GI50 LOVO; for IC (TGI): TGI=total growth inhibition (cytostatic effect), read-out: TGI LOVO
# Outline: as §1
# LoVo-Dox = assay: SRB colorimetric cell growth inhibition assay, LoVo-Dox (MDR); type: cell-based
# Outline: as §1
# DU-145 = assay: SRB colorimetric cell growth inhibition assay, DU-145; type: cell-based; conditions: Homo sapiens; for CC50: read-out: LC50 DU-145; for GI50: GI=growth inhibition, read-out: GI50 DU-145; for IC (TGI): total growth inhibition (cytostatic effect), read-out: TGI DU-145
# Outline: as §1
# LNCaP = assay: SRB colorimetric cell growth inhibition assay, LNCaP; type: cell-based; conditions: Homo sapiens, LNCaP, LN-caP; for GI50: GI=growth inhibition, read-out: GI50 LN-caP; for CC50: read-out: LC50 LN-caP; for IC (TGI): total growth inhibition (cytostatic effect), read-out: TGI LN-caP
# Outline: as §1
# SK-BR-3 = assay: SRB colorimetric cell growth inhibition assay, SK-BR-3; type: cell-based; conditions: Homo sapiens; for CC50: read-out: LC50 SK-BR-3; for GI50: GI=growth inhibition, read-out: GI50 SK-BR-3; for IC (TGI): total growth inhibition (cytostatic effect), read-out: TGI SK-BR-3
# Outline: as §1
# IGROV = assay: SRB colorimetric cell growth inhibition assay, IGROV; type: cell-based
# Outline: as §1
# IGROV-ET = assay: SRB colorimetric cell growth inhibition assay, IGROV-ET (ET-743 resistant); type: cell-based; conditions: Homo sapiens, IGROV-ET; for GI50: GI=growth inhibition, read-out: GI50 IGROV-ET; for CC50: read-out: LC50 IGROV-ET; for IC (TGI): total growth inhibition (cytostatic effect), read-out: TGI IGROV-ET
# Outline: as §1
# PANC-1 = assay: SRB colorimetric cell growth inhibition assay, PANC-1; type: cell-based; conditions: Homo sapiens; for CC50: LC=cell killing (cytotoxic effect), read-out: LC50 PANC-1; for IC (TGI): TGI=total growth inhibition (cytostatic effect), read-out: TGI PANC-1; for GI50: GI=growth inhibition, read-out: GI50 PANC-1
# Outline: as §1
# human topoisomerase I = molecular target: T1, human topoisomerase I (Homo sapiens, UniProt P11387); assay: Topoisomerase I DNA relaxation assay (supercoiled plasmid DNA); type: biochemical; conditions: supercoiled plasmid DNA, each compound tested at 1 μM, agarose gel with ethidium bromide
# T1 sequence (P11387 1-765): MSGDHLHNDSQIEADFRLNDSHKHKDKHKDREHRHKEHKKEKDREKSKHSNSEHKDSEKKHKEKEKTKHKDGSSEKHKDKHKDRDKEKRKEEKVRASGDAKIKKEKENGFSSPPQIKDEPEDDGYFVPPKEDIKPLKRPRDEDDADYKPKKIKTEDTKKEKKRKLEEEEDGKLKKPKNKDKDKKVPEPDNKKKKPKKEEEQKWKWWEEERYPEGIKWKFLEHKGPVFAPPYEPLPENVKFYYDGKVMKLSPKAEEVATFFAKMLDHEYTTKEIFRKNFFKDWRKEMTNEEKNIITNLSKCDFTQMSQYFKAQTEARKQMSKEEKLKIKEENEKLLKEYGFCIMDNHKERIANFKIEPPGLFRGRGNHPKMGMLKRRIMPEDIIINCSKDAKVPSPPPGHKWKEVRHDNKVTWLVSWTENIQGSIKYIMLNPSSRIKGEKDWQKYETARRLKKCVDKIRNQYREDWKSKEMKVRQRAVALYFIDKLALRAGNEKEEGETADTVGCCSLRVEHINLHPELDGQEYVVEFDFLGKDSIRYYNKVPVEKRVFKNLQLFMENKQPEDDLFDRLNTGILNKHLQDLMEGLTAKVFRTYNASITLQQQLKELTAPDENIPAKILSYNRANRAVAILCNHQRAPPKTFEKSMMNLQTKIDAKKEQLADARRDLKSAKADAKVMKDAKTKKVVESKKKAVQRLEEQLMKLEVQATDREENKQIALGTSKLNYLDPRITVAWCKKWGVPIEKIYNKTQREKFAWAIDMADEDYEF
# Outline: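 Test compounds (1 μM each) were present during topoisomerase I relaxation of supercoiled plasmid DNA. Relaxation was assessed on ethidium bromide-stained agarose gels.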
# H-MEC-1 = assay: SRB colorimetric cell growth inhibition assay, H-MEC-1; type: cell-based; conditions: Homo sapiens, HMEC-1, H-MEC-1; for GI50: GI=growth inhibition, read-out: GI50 H-MEC-1; for IC (TGI): total growth inhibition (cytostatic effect), read-out: TGI H-MEC-1
# Outline: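 Growth inhibition (GI), total growth inhibition (TGI, cytostatic) and lethal concentration (LC, cytotoxic) come from an SRB-based colorimetric measure of growth and viability. Data are triplicate-well means ± SD.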
# [1] = cell killing (cytotoxic effect)
# [2] = Homo sapiens, LOVO-DOX; GI=growth inhibition; read-out: GI50 LOVO-DOX
# [3] = Homo sapiens, LOVO-DOX; LC=cell killing (cytotoxic effect); read-out: LC50 LOVO-DOX
# [4] = Homo sapiens; LOVO-DOX; TGI=total growth inhibition (cytostatic effect); read-out: TGI LOVO-DOX
# [5] = DU-145, DU-145, cell killing (cytotoxic effect)
# [6] = SK-BR-3, SK-BR-3, cell killing (cytotoxic effect)
# [7] = Homo sapiens, IGROV; cell killing (cytotoxic effect); read-out: LC50 IGROV
# [8] = Homo sapiens; IGROV; GI=growth inhibition; read-out: GI50 IGROV
# [9] = Homo sapiens; IGROV; total growth inhibition (cytostatic effect); read-out: TGI IGROV
# [10] = LC=cell killing (cytotoxic effect)
Compound,GI50 (K-562) [nM],CC50 (K-562) [nM],IC (TGI) (K-562) [nM],GI50 (A-549) [nM],CC50 (A-549) [nM],IC (TGI) (A-549) [nM],GI50 (SK-MEL-28) [nM],IC (TGI) (SK-MEL-28) [nM],"CC50 (HT-29; HT-29, HT-29) [nM]",CC50 (LoVo; LoVo) [nM],GI50 (LoVo-Dox; [2]) [nM],CC50 (LoVo-Dox; [3]) [nM],GI50 (LNCaP) [nM],IC (TGI) (LNCaP) [nM],GI50 (IGROV-ET) [nM],IC (TGI) (IGROV-ET) [nM],"CC50 (PANC-1; PANC-1, PANC-1) [nM]","IC (TGI) (PANC-1; PANC-1, PANC-1) [nM]",stimulation of DNA cleavage by topoisomerase I / inhibition of topoisomerase I (nicked DNA band) in DNA relaxation assay (human topoisomerase I),GI50 (H-MEC-1) [nM],other results
COc1cc(-c2c3n(c4c(=O)oc5cc(OC(=O)[C@H](NC(=O)OC(C)(C)C)C(C)C)c(OC)cc5c24)CCc2cc(OC(=O)[C@H](NC(=O)OC(C)(C)C)C(C)C)c(OC)cc2-3)ccc1OC(=O)[C@H](NC(=O)OC(C)(C)C)C(C)C [Compound 34],1040,6620,2610,1470,9100,3710,1360,2760,9100,9100,9100,9100,461,1570,2070,4630,9100,992,No effect,244,CC50 (SK-MEL-28; [1]): 5580 nM; GI50 (HT-29; HT-29): 1160 nM; IC (TGI) (HT-29; HT-29): 5390 nM; GI50 (LoVo; LOVO): 840 nM; IC (TGI) (LoVo; LOVO): 4020 nM; IC (TGI) (LoVo-Dox; [4]): 9100 nM; CC50 (DU-145; [5]): 6500 nM; GI50 (DU-145; DU-145): 196 nM; IC (TGI) (DU-145; DU-145): 588 nM; CC50 (LNCaP; [1]): 4110 nM; CC50 (SK-BR-3; [6]): 8950 nM; GI50 (SK-BR-3; SK-BR-3): 1180 nM; IC (TGI) (SK-BR-3; SK-BR-3): 3250 nM; CC50 (IGROV; [7]): 8740 nM; GI50 (IGROV; [8]): 307 nM; IC (TGI) (IGROV; [9]): 2110 nM; CC50 (IGROV-ET; [1]): 9100 nM; GI50 (PANC-1; PANC-1): 301 nM; IC (TGI) (H-MEC-1): 653 nM
COc1cc(-c2c3c4cc(OC)c(OC(=O)[C@@H](N)C(C)C)cc4oc(=O)c3n3ccc4cc(OC(=O)[C@@H](N)C(C)C)c(OC)cc4c23)ccc1OC(=O)[C@@H](N)C(C)C [Compound 36],9.48,5700,188,32.8,1690,154,31.9,181,8780,652,145,8780,42.8,156,76.5,540,8780,1130,marked inhibition of topoisomerase I; also recorded: stimulated DNA cleavage by the enzyme,2.65,"CC50 (SK-MEL-28; [1]): 2700 nM; GI50 (HT-29; HT-29, HT-29): 1510 nM; IC (TGI) (HT-29; HT-29, HT-29): 4080 nM; GI50 (LoVo; LoVo): 158 nM; IC (TGI) (LoVo; LoVo): 321 nM; IC (TGI) (LoVo-Dox; Homo sapiens, LOVO-DOX; TGI=total growth inhibition (cytostatic effect); read-out: TGI LOVO-DOX): 525 nM; GI50 (DU-145; DU-145, DU-145): 10.8 nM; CC50 (DU-145; [5]): 668 nM; IC (TGI) (DU-145; DU-145, DU-145): 38.3 nM; CC50 (LNCaP; [1]): 424 nM; GI50 (SK-BR-3; SK-BR-3, SK-BR-3): 39.6 nM; CC50 (SK-BR-3; [6]): 2940 nM; IC (TGI) (SK-BR-3; SK-BR-3, SK-BR-3): 221 nM; GI50 (IGROV; Homo sapiens, IGROV; GI=growth inhibition; read-out: GI50 IGROV): 46.9 nM; CC50 (IGROV; [7]): 7950 nM; IC (TGI) (IGROV; Homo sapiens, IGROV; total growth inhibition (cytostatic effect); read-out: TGI IGROV): 409 nM; CC50 (IGROV-ET; [1]): 8780 nM; GI50 (PANC-1; PANC-1, PANC-1): 169 nM; IC (TGI) (H-MEC-1): 8.6 nM"
COc1cc(-c2c3c4cc(OC)c(OC(=O)[C@@H](NC(=O)OC(C)(C)C)C(C)C)cc4oc(=O)c3n3ccc4cc(OC(=O)[C@@H](NC(=O)OC(C)(C)C)C(C)C)c(OC)cc4c23)ccc1OC(=O)[C@@H](NC(=O)OC(C)(C)C)C(C)C [Compound 38],41.3,9110,1150,1340,9110,4780,165,520,9110,9110,9110,9110,152,509,1290,4510,9110,9110,No effect,80.9,"CC50 (SK-MEL-28; [10]): 9110 nM; GI50 (HT-29; HT-29): 32.4 nM; IC (TGI) (HT-29; HT-29): 91.1 nM; GI50 (LoVo; LOVO): 9110 nM; IC (TGI) (LoVo; LOVO): 9110 nM; IC (TGI) (LoVo-Dox; [4]): 9110 nM; CC50 (DU-145; DU-145, DU-145, LC=cell killing (cytotoxic effect)): 9110 nM; GI50 (DU-145; DU-145): 51.2 nM; IC (TGI) (DU-145; DU-145): 9110 nM; CC50 (LNCaP; [10]): 3900 nM; CC50 (SK-BR-3; SK-BR-3, SK-BR-3, LC=cell killing (cytotoxic effect)): 9110 nM; GI50 (SK-BR-3; SK-BR-3): 448 nM; IC (TGI) (SK-BR-3; SK-BR-3): 4080 nM; CC50 (IGROV; Homo sapiens, IGROV; LC=cell killing (cytotoxic effect); read-out: LC50 IGROV): 9110 nM; GI50 (IGROV; [8]): 244 nM; IC (TGI) (IGROV; [9]): 1070 nM; CC50 (IGROV-ET; [10]): 9110 nM; GI50 (PANC-1; PANC-1): 499 nM; IC (TGI) (H-MEC-1): 911 nM"
